In patent publication EP1488698A1, “Compositions for descreasing intracellular inositol trisphosphate concentration and uses thereof” (priority 1995, dated 1997):
Marks after values point to notes of the source that are not given here.

Tests used:
[1] = test system: primary chick cortical neurons; assay: Phosphoinositide hydrolysis assay (InsP3 production) in cultured primary cortical neurons; format: cell-based; details: for fold induction at 100 µM: Gallus gallus, Cortical neurone, 20 min, read-out: Ins-P-n
Method: The neurons were seeded in 24-well plastic tissue culture plates that had been coated with L-polylysine.
Receptor-stimulated and basal unstimulated hydrolysis of phosphoinositides was measured by the following procedure. […] The cells were then washed twice with 1 ml Dulbecco's phosphate-buffered saline (PBS) and 0.5 ml of PBS containing 4.5 g/L glucose was added. Sphingosine, psychosine, lysosulphatide, or lysosphingomyelin, prepared as the hydrochloride salt dissolved in water, were then added to produce the desired extracellular concentration in specific wells, […] The cells were then washed twice with 1 ml PBS, and pre-incubated for 15 minutes at 37°C with 0.5 ml PBS containing 10 mM LiCl and the compound to be tested was added. […] The tubes were vortexed thoroughly, then centrifuged at 500 x g for 5 minutes to separate the aqueous and chloroform phases. For each sample, a 1.5-ml aliquot of the upper (aqueous) phase was applied to a small column containing BioRad AG1X8 resin (formate form). Free [^3H]inositol and [^3H]glycerophosphoinositol were washed through the column with 5 ml of a solution containing 5 mM sodium borate and 60 mM sodium formate. The total phosphorylated [^3H] inositol fraction was eluted from the column for radiometric scintillation spectrometry analysis with 3 ml 1.0 M ammonium formate/0.1 M formic acid.
In addition, a 0.5 ml aliquot of the lower (chloroform) phase of each sample was analyzed radiometrically by scintillation spectrometry in order to determine the quantity of lipid-bound [^3H]myo-inositol. Estimation of phosphoinositide hydrolysis by phospholipase C is based upon the quantity of [^3H]inositol phosphates produced, and is expressed as the percentage of the latter relative to total free and componential [^3H]inositol (dpm ammonium formate + dpm chloroform fractions).

cortical neurons = assay: Calcium ion signalling (fura 2) in intact cortical neurons; format: cell-based, chick
Method: Metabotropic receptor function was examined in intact neurons by assaying lysosphingolipid modulation of calcium ion signalling. Approximately 1 X 10^6 cortical neurons were cultured on rectangular L-polylysine-coated coverslips and loaded with lysocerebroside or lysosphingomyelin to a level of 150 ± 20 pmoles per mg protein. The neurons were returned to complete Ham's high glucose medium/DMEM (1:1, vol:vol) and infiltrated with 5 µM fura 2/AM (Molecular Probes, Eugene, OR). Fura 2 is a calcium chelator whose fluorescence absorbance shifts to shorter wavelength upon calcium ion binding is measurable in intact cells. A change in intraneuronal calcium ion concentration was monitored as a change in the fluorescence spectrum.
The neurons were exposed to 10 µM glutamate agonist (for example, ibotenate) for 30 minutes at 37°C. The coverslips were then transferred to quartz cuvettes in medium containing 250 µM sulfinpyrazone to prevent fura 2/AM diffusion. Fluorescence ratios were recorded in a Perkin-Elmer LS-5 Fluorescence Spectrometer thermostatted at 37°C at excitation wavelengths of 340 and 380 nm, and emission measurement at 500 nm. Calcium ion signalling in agonist-stimulated neurons was 3.0 ± 0.2 arbitrary units for ibotenate-exposed neurons.

cultured neurons = assay: Lysosphingolipid content of cultured neurons by NBDZF fluorescence tagging; format: cell-based, chick
Source text: Agonist-binding to metabotropic receptors influences the levels of lysosphingolipid in neuronal membranes. However, there is no convenient methodology available for the measurement of lysosphingolipid content in cultured neurons. As a result, a sensitive method of fluorometric tracing has been devised and is described herein. The measurement of lysosphingolipid content in cultured neurons is based on the stable fluorescence-tagging procedure using 4-fluoro, 7-nitrobenzofuran (NBDZF) described by Nozowa et al J. Neutochem. 59:607-609, 1992). The procedure was applied to: resting neurons; neurons exposed to 100 µM metabotropic receptor agonist for 1 hour; resting neurons exogenously enriched in lysosphingolipids; and neurons exogenously enriched in lysosphingolipids and exposed to metabotropic receptor agonist for 1 hour. The neurons were scraped in batches of 10^7 (1 Petri dish, approximately 8 cm in diameter, is equivalent to 2 mg membrane protein) and subjected to anaylsis.
Total lipids were removed from the neuron samples by repeated extraction with chloroform:methanol (2:1, vol:vol). The lysosphingolipids were separated from total neuronal lipid in 90 ± 5 % recovery yield (n = 10) by the stepped chromatographic procedure of Van Veldhoven et al. (Anal. Biochem. 183:177-189, 1989). The recovered lysosphingolipids were stably tagged with NBDZF by the rapid procedure of Nozowa et al. (supra). The fluorescence tagged neuronal lysosphingolipids were separated in parallel with reference standards NBDZF-Sph, NBDZF-Psy, and NBDZF-Lsm on high performance silica gel thin layer chromatography plates with acetonitrile:H2O (10:0.5, vol:vol). The highly fluorescent, well separated bands were scraped from the plate. The fluorescence tagged lysosphingolipids are eluted from the scraped silica gel with methanol:1 N HCl (1:0.02, vol:vol). The fluorescence tagged lysosphingolipid eluates were quantitated against reference standards by fluorescence measurement in a Perkin-Elmer LS-5 Fluorescence Spectrometer.
Sphingolipid content of neurons exposed to sphingosine, lysocerebroside, and lysosphingomyelin was examined as follows. A Petri dish containing approximately 10^7 neurons was incubated with 5 µCi [^3H]myo-Ins in 3 ml DMEM overnight to prelabel the phosphoinositide InsP3 may contain. The neurons were washed with PBS and 3 ml of PBS containing 4.5 g/l glucose was added. Preparations of sphingosine, lysocerebroside, lysosphingomyelin (Sigma Chemical Co., St. Louis, MO) and combinations of each were prepared as the hydrochloride salt dissolved in PBS. The lysosphingolipids were added to the Petri dishes to produce a concentration ranging from 0 - 150 µM. The dishes were held at room temperature for 0.5, 1, or 2 hours, then washed with PBS and incubated with 5 Units of trypsin in glucose/PBS for […] at 37°C. Trypsinization removes non-specifically bound lysosphingolipids that may adhere to extracellular plasma membrane protein domains. Non-specific adherence between cationic micelles of lysosphingolipids and the neuronal glycocalyx is avoided by performing the experiments with lysosphingolipid concentrations below the critical micelle concentration. Neurons were analyzed for lysosphingolipid content as described above.

## N[C@@H](CC(=O)O)C(=O)O [Aspartate, aspartate, reference compound]
[1]
  fold induction at 100 µM: 2.7 ± 0.06

## N[C@@H](CCC(=O)O)C(=O)O [Glutamate, glutamate, reference compound]
[1]
  fold induction at 100 µM: 3.3 ± 0.05

## NC(C(=O)O)c1cc(O)no1 (stereo not drawn) [Ibotenate, ibotenate, reference compound]
Cortical neurons
  Calcium ion signalling: 3.0 ± 0.2 arbitrary units
[1]
  Ins-P-n: 3.00 ± 0.10^f
Cultured neurons
  lysocerebroside content of neurons: 80 ± 5
  lysosphingomyelin content of neurons: 52 ± 2
  sphingosine content of neurons: 85 ± 3

## CN[C@@H]1C[C@H]2O[C@@](C)([C@@H]1OC)n1c3ccccc3c3c4c(c5c6ccccc6n2c5c31)C(=O)NC4 [staurosporine, reference compound]
[1]; brain neurons responsive to excitatory amino acids, protein kinase C inhibitor
  influence on the effects of sphingosine, lysocerebroside, or lysosphingomyelin on InsP3 production: does not influence

## Lysosulphatide [reference compound]
[1]; chick cortical neurons
  inhibitory effect on InsP3 signalling: without inhibitory effect
